{"source": "ChEMBL document CHEMBL3596116", "about": "“Conformational analysis of peramivir reveals critical differences between free and enzyme-bound states” (Medchemcomm, 2014)", "target": "Neuraminidase (Influenza A virus, UniProt B4URF0)", "sequence (B4URF0 whole entry)": "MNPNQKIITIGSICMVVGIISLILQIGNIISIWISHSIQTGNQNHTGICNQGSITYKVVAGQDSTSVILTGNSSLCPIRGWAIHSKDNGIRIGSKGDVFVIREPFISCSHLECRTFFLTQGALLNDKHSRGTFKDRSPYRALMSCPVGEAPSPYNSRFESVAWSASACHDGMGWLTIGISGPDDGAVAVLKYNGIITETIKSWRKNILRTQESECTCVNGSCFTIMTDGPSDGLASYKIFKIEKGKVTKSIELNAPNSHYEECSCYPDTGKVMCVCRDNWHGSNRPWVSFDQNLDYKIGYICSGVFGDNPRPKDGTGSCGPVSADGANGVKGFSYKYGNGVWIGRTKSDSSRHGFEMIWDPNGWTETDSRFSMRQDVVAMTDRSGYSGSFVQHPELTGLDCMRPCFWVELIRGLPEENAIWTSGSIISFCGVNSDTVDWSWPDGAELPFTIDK", "set-up": "species or system unidentified adenovirus", "data": [{"smiles": "CCC(CC)[C@H](NC(C)=O)[C@@H]1[C@H](O)[C@@H](C(=O)O)C[C@H]1NC(=N)N", "note": "[PERAMIVIR ANHYDROUS]", "values": [{"measurement": "IC50", "value": 0.1, "unit": "nM"}]}]}
